Publication PMC8128165, “Effect of amino acids and amines on the activity of the recombinant ι-carbonic anhydrase from the Gram-negative bacterium Burkholderia territorii” (Journal of Enzyme Inhibition and Medicinal Chemistry, 2021)

System: BteCAι
Assay: stopped-flow CO2 hydration assay (activation)
Assay type: biochemical, Burkholderia territorii
Conditions: activation constant (not an association constant); CO2 substrate; 10 mM HEPES pH 7.5, 0.1 M NaClO4; 25 °C; activator
Text: stopped-flow CO2 hydration assay (activation) on BteCAι

SMILES	KA (μM)* / BteCAι^b
CNC[C@H](O)c1ccc(O)c(O)c1 [compound 19, L-Adrenaline]	9.7 µM
N[C@H](Cc1ccccc1)C(=O)O [compound 4, D-Phe]	9.4 µM
N[C@@H](Cc1ccc(O)cc1)C(=O)O [compound 9, L-Tyr]	8.0 µM
N[C@H](CCC(=O)O)C(=O)O [compound 23, D-Glu]	8.5 µM
Nc1ccc(C[C@H](N)C(=O)O)cc1 [compound 11, 4-H2N-L-Phe]	6.9 µM
N[C@H](Cc1c[nH]cn1)C(=O)O [compound 2, D-His]	6.2 µM
NCCc1ccc(O)c(O)c1 [compound 13, Dopamine]	8.7 µM
N[C@@H](Cc1ccc(O)c(O)c1)C(=O)O [compound 5, L-DOPA]	4.3 µM
N[C@@H](Cc1cnc[nH]1)C(=O)O [compound 1, L-His]	8.6 µM
NC(=O)CC[C@H](N)C(=O)O [compound 24, L-Gln]	5.8 µM
NCCc1c[nH]c2ccc(O)cc12 [compound 14, Serotonin]	13.3 µM
N[C@@H](Cc1c[nH]c2ccccc12)C(=O)O [compound 7, L-Trp]	10.2 µM
NCCN1CCOCC1 [compound 18, 4-(2-Aminoethyl)-morpholine]	12.0 µM
NCCN1CCNCC1 [compound 17, 1-(2-Aminoethyl)-piperazine]	3.9 µM
N[C@H](Cc1ccc(O)c(O)c1)C(=O)O [compound 6, D-DOPA]	11.7 µM
N[C@@H](CC(=O)O)C(=O)O [compound 21, L-Asp]	8.4 µM
N[C@H](Cc1ccc(O)cc1)C(=O)O [compound 10, D-Tyr]	7.3 µM
N[C@H](Cc1c[nH]c2ccccc12)C(=O)O [compound 8, D-Trp]	6.1 µM
NCCc1c[nH]cn1 [compound 12, Histamine]	6.0 µM
